{
  "source": "paper PMC10935558",
  "about": "“In vitro and in silico studies reveal antidiabetic properties of arylbenzofurans from the root bark of Morus mesozygia Stapf” (Frontiers in Pharmacology, 2024)",
  "key": {"[1]": {"target": "Saccharomyces cerevisiae α-glucosidase", "assay": "In-vitro α-glucosidase inhibition assay", "format": "biochemical", "details": "for IC50: n = 5 independent experiments in duplicate, read-out: α-glucosidase IC50 (range)", "procedure": "The α-glucosidase activity assay was carried out as described previously ([Günther et al., 2021]). Briefly, 10 mM stock solutions of the arylbenzofurans (1—3) prepared in DMSO were diluted in water. Fifteen µl of these diluted moracin compounds were mixed in 96-well microtest plates (VWR, Darmstadt, Germany) with 105 μL of 0.1 M phosphate buffer, pH 6.8 and 15 μL of a 0.5 U/mL Saccharomyces cerevisiae α-glucosidase solution (Sigma-Aldrich, Taufkirchen, Germany). The final arylbenzofurans concentrations range from 0–200 μM, while the final concentration of the extract and fractions ranges from 100–500 μg/mL. […] Following 5 min pre-incubation at 37°C, the reaction was started with 15 μL of 10 mM p-nitrophenyl-α-D-glucopyranoside (Sigma-Aldrich, Taufkirchen, Germany). After 20 min at 37 °C, 50 μL 2 M Na2CO3 stop solution was added (VWR, Darmstadt, Germany). The absorbance was measured photometrically at 405 nm (iEMS Reader MF). Five independent experiments were performed in duplicate.\n(§1) GraphPad Prism, version 5.0 was used for the statistical analysis of data, which were expressed as mean ± standard deviation. Multiple comparisons of IC50 values were carried out by using one-way ANOVA followed by Tukey’s test."}, "[2]": {"target": "T1, porcine pancreatic α-amylase (Sus scrofa, UniProt P00690)", "T1 sequence (P00690 16-511)": "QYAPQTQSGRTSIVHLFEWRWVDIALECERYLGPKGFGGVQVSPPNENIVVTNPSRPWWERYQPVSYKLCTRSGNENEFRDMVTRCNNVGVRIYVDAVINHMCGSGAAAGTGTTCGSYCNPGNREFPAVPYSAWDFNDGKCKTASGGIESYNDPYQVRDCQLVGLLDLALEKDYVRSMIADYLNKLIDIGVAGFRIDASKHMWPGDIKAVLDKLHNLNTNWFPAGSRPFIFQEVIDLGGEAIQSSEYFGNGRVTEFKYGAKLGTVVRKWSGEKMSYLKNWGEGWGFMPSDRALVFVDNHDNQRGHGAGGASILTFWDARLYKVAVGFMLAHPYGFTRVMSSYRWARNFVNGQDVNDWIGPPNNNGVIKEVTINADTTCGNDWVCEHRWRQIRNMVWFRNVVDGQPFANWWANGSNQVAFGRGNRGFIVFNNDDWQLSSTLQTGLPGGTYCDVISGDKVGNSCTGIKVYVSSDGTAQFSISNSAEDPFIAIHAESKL", "assay": "In-vitro α-amylase inhibition assay", "format": "biochemical", "details": "n = 2 independent experiments in duplicate; read-out: α-amylase IC50 (range)", "procedure": "To this end, moracins, extracts, and fraction stocks were diluted with water to give concentrations of 1,000 and 3,000 μg/mL. Of these dilutions, 15 μL were mixed with 35 µL distilled H2O and 50 μL of porcine pancreatic α-amylase (2.5 U/mL) in 20 mM sodium phosphate buffer containing 6.7 mM NaCl, pH 6.9. Following 10 min pre-incubation at 25°C, 50 μL 1% starch solution that had been cooked for 15 min in the same buffer was added to start the reaction. After 10 min at 25°C, 100 μL of a color reagent (1% 3,5-dinitrosalicylic acid and 30% sodium potassium tartrate in 0.4 M NaOH, all chemicals from Sigma-Aldrich, Taufkirchen, Germany) were added. The mixture was incubated for an additional 5 min at 100 °C and cooled to room temperature before the absorbance was measured at 540 nm by a microplate reader (iEMS Reader MF, MTX Lab Systems, Helsinki, Finland). […] The percentage inhibition of α-amylase was calculated by using the following equation: Inhibition%=AbC−AbCblank−AbS−AbSblank/AbC−AbCblank×100 AbC, absorbance of the control; AbS, absorbance of the sample.\nas §1"}, "[3]": {"target": "T2, human recombinant DPP4 enzyme (Homo sapiens, UniProt P27487)", "T2 construct": "purchased abcam, Berlin, Germany", "T2 sequence (P27487 whole entry)": "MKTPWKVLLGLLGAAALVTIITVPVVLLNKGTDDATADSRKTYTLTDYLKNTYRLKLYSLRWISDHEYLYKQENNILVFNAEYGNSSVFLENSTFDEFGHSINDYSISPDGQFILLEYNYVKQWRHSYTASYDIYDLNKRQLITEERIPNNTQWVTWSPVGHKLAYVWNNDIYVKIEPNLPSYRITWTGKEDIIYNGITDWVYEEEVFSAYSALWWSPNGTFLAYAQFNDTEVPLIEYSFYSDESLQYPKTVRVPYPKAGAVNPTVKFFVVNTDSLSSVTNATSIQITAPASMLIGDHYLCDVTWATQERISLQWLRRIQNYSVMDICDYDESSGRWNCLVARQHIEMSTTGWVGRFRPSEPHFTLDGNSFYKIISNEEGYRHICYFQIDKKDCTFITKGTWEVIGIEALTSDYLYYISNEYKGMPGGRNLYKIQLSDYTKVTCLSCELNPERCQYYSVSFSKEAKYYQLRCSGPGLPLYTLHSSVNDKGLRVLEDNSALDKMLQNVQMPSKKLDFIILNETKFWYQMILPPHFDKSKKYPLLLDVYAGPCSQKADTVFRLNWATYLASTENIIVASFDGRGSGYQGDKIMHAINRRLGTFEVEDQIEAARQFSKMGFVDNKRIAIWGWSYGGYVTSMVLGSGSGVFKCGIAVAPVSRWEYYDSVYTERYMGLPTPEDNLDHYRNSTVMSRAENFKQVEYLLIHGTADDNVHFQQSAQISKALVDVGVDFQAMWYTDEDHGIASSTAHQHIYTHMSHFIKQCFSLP", "assay": "In-vitro dipeptidyl peptidase-4 (DPP4) inhibition assay (inhibitor screening kit)", "format": "biochemical", "procedure": "The DPP4 inhibitor activities of the three moracins were determined by using the DPP4 inhibitor screening kit following the manufacturer’s instructions (abcam, Berlin, Germany). The established DPP4 inhibitor sitagliptin served as the positive inhibitor control, whereas assay buffer was only used as the control for DPP4 enzyme activity and was set to 100%. 30 μL of assay buffer and 10 μL human recombinant DPP4 enzyme were mixed in 96-well microtiter plates with 10 μL of 0.1- or 1-mM moracin solutions, 1 mM sitagliptin, or assay buffer. Following 10 min pre-incubation at 37°C, 50 μL of substrate solution was added to each well. The fluorescence signal (excitation wavelength of 360 nm, emission wavelength of 465 nm) was measured after 30 min incubation at 37°C (Tecan Infinite 200 micro-plate reader).\nas §1, with “test. For the DPP4 inhibition results, a one-way ANOVA followed by Dunnett’s post-hoc test was conducted to compare the means of treatment groups to that of the control group without inhibitor.” for “test.”"}, "[4]": {"test_system": "chronic hepatitis C virus (HCV) cell", "design": "method as in Hyun et al., 2007", "details": "antiviral assay; ref Hyun et al., 2007; read-out: IC50 against HCV cell; cited from earlier work"}, "[5]": {"test_system": "H9c2 cells", "design": "method as in Zheng et al., 2017", "details": "doxorubicin-induced myocardial toxicity in H9c2 cells; ref Zheng et al., 2017; read-out: EC50 cytoprotective effect; cited from earlier work"}, "[6]": {"test_system": "protein tyrosine phosphatase 1B (PTP1B)", "design": "method as in Cui et al., 2006", "details": "ref Cui et al., 2006; cited from earlier work"}},
  "note": "Where “and” joins values, the source holds several entries; their conditions need not be identical. Equal values may be shown once.",
  "data": [
    {"compound": "CC(C)(O)CCc1c(O)ccc2cc(-c3cc(O)cc(O)c3)oc12", "note": "[Compound 1, 5-(6-hydroxy-7-(3-hydroxy-3-methylbutyl)benzofuran-2-yl)benzene-1,3-diol]", "values": [
      {"measurement": "IC50", "setting": "[1]", "value": "~17 µM and 16.9 µM"},
      {"measurement": "IC50", "setting": "[2]", "value": "> 300", "unit": "µM"},
      {"measurement": "DPP4 inhibition (in words)", "setting": "[3]", "value": "moderate inhibitors"},
      {"measurement": "inhibition at 100 µM", "setting": "[3]; at 100 μM, read-out: inhibitory activity against DPP4", "value": 15, "unit": "%"}
    ]},
    {"compound": "CC1(C)Oc2cc3oc(-c4cc(O)cc(O)c4)cc3cc2C[C@H]1O", "note": "[Compound 2, Moracin P]", "values": [
      {"measurement": "IC50", "setting": "[1]", "value": "~17 µM and 16.6 µM"},
      {"measurement": "IC50", "setting": "[2]", "value": "> 300", "unit": "µM"},
      {"measurement": "IC50", "setting": "[4]", "value": 42.9, "unit": "µM"},
      {"measurement": "EC50", "setting": "[5]", "value": 8.8, "unit": "µM"},
      {"measurement": "inhibitory effect against PTP1B (in words)", "setting": "[6]", "value": "marginal inhibitory effect"}
    ]},
    {"compound": "Oc1cc(O)cc(-c2cc3ccc(O)cc3o2)c1", "note": "[Compound 3, Moracin M]", "values": [
      {"measurement": "fold less potent than 1 and 2 (α-glucosidase)", "setting": "[1]", "value": "~2.4", "unit": "fold"},
      {"measurement": "IC50", "setting": "[1]", "value": 40.9, "unit": "µM"},
      {"measurement": "IC50", "setting": "[2]", "value": "> 300", "unit": "µM"},
      {"measurement": "DPP4 inhibition (in words)", "setting": "[3]", "value": "moderate inhibitors"},
      {"measurement": "residual peptidase (DPP4) activity compared to control", "setting": "[3]; at 100 μM", "value": 62.7, "unit": "%"},
      {"measurement": "IC50", "setting": "[4]", "value": "> 100", "unit": "µM"}
    ]}
  ]
}
